{
  "source": "patent US9873883B2",
  "about": "“Glyphosate resistant plants and associated methods” (Dow AgroSciences LLC, priority 2012, dated 2018)",
  "key": {"[1]": {"tested_on": "Arabidopsis transformed with TraP5 v1::dgt-14 (pDAB102787)", "assay": "Postemergence glyphosate tolerance, visual injury", "type": "in vivo, Arabidopsis thaliana", "settings": "2 weeks after application", "text": "(§1) Transgenic T1 Arabidopsis plants containing the dgt-14 transgene were sprayed with differing rates of glyphosate. A distribution of varying concentrations of glyphosate rates, including elevated rates, were applied in this study to determine the relative levels of resistance (105, 420, 1,680 or 3,360 g ae/ha). The typical 1× field usage rate of glyphosate is 1,120 g ae/ha. The T1 Arabidopsis plants that were used in this study were variable in copy number for the dgt-14 transgene. The low copy dgt-14 T1 Arabidopsis plants were identified using the molecular confirmation assays described above, and self-pollinated and used to produce T2 plants.\n(§2) The Arabidopsis T1 transformants were first selected from the background of untransformed seed using a glufosinate selection scheme. Three flats or 30,000 seed were analyzed for each T1 construct. The T1 plants selected above were molecularly characterized and the plants were subsequently transplanted to individual pots and sprayed with various rates of commercial glyphosate as previously described. The dose response of these plants is presented in terms of % visual injury 2 weeks after treatment (WAT). […] An arithmetic mean and standard deviation is presented for each construct used for Arabidopsis transformation. The range in individual response is also indicated in the last column for each rate and transformation. Wildtype, non-transformed Arabidopsis (c.v. Columbia) served as a glyphosate sensitive control.\n(§3) Selected T1 Arabidopsis plants which were identified to contain low-copy numbers of transgene insertions (1-3 copies) were self-fertilized to produce a second generation for additional assessment of glyphosate tolerance. […] In the T2 generation hemizygous and homozygous plants were available for testing for each event and therefore were included for each rate of glyphosate tested. Hemizygous plants contain two different alleles at a locus as compared to homozygous plants which contain the same two alleles at a locus. The copy number and ploidy levels of the T2 plants were confirmed using the molecular analysis protocols previously described. Likewise, glyphosate was applied using the methods and rates as previously described. The dose response of the plants is presented in terms of % visual injury 2 weeks after treatment (WAT). […] An arithmetic mean and standard deviation are presented for each construct used for Arabidopsis transformation. The range in individual response is also indicated in the last column for each rate and transformation. Wildtype, non-transformed Arabidopsis (cv. Columbia) served as a glyphosate sensitive control. In addition, plants comprising a glyphosate herbicide resistance gene, dgt-1 (as described in U.S. patent Ser. No. 12/558,351, incorporated herein by reference in its entirety) were included as a positive control.\n(§4) Randomly selected T2 Arabidopsis plants which were identified to contain low-copy numbers of transgene insertions (1-3 copies) were self-fertilized to produce a third generation for additional assessment of glyphosate tolerance. Arabidopsis seed from the third generation (T3) were planted and evaluated for glyphosate tolerance using the same protocols as previously described. […] These Events were assayed via LC-MS-MS to confirm that the plants expressed the DGT-14 protein. […] Exemplary resistant T3 Events comprised dgt-14 linked with TraP8 v2 (pDAB105526), TraP9 v2 (pDAB105527), TraP12 v2 (pDAB105528) and TraP13 v2 (pDAB105529)."}, "[2]": {"tested_on": "Arabidopsis transformed with TraP13 v2::dgt-14 (pDAB105529)", "assay": "Postemergence glyphosate tolerance, visual injury", "type": "in vivo, Arabidopsis thaliana", "settings": "for Visual % injury (Ave): 2 weeks after application", "text": "as §1, §2, §3, §4"}, "[3]": {"target": "bacterial EPSP synthase DGT-11 v6, native (GENBANK YP_989551.1), SEQ ID NO:5 (Bartonella bacilliformis, UniProt A0ABN0IFN8)", "assay": "In vitro kinetic assay (inorganic phosphate production, malachite green)", "experimental": "The synthesized genes were cloned into the pET28 expression vector.\nRecombinant DGT proteins were overexpressed in Rosetta2™ (DE3) cells (Novagen, Madison, Wis.) from the constructs described above. A single colony was used to inoculate 50 mL starter cultures of LB containing chloramphenicol (25 μg/mL) and kanamycin (50 μg/mL) which were cultivated overnight at 37° C. The overnight cultures were used to inoculate 1 L of LB containing chloramphenicol (25 μg/mL) and kanamycin (50 μg/mL). The cultures were grown at 37° C. to an O.D.600=0.6 then placed in an ice water bath for 10 minutes. Expression of the target proteins was achieved by addition of IPTG to a final concentration of 500 μM. Induction was allowed to proceed overnight at 20° C. followed by harvesting via centrifugation at 8,000 rpm for 20 minutes. The cell pellets were stored at −80° C. until required for purification. All purification steps were carried out at 4° C."}, "dgt-14 rice plants": {"tested_on": "dgt-14 rice plants", "assay": "Glyphosate tolerance of dgt-14 rice", "type": "in vivo, Oryza sativa", "settings": "sprayed", "text": "Putatively transgenic rice plantlets at the 3-5 leaf stage are sprayed with a solution of glyphosate. Once sprayed, plantlets are allowed to dry for one hour before being moved out of the fume hood. Rating for sensitivity or resistance to glyphosate is completed from 10-14 days after treatment (DAT). Glyphosate resistant rice plantlets which contain a fully integrated copy of the dgt-14 plant are identified. Rice plants containing the dgt-14 transgene are obtained. The dgt-14 rice plants are sprayed with varying concentrations of glyphosate and shown to provide tolerance to glyphosate at concentrations up to 3360 g ae/ha."}},
  "data": [
    {"molecule": "O=C(O)CNCP(=O)(O)O", "note": "[glyphosate, N-(phosphonomethyl)glycine]", "values": [
      {"measurement": "Visual % injury (Ave)", "setting": "[1]; T1, 105 g ae/ha", "value": 64.0, "unit": "%"},
      {"measurement": "Visual % injury (Ave)", "setting": "[1]; T1, 420 g ae/ha", "value": 99.0, "unit": "%"},
      {"measurement": "Visual % injury (Ave)", "setting": "[1]; T1, 1680 g ae/ha", "value": 100.0, "unit": "%"},
      {"measurement": "Visual % injury (Ave)", "setting": "[1]; T2, 420 g ae/ha", "value": 90.0, "unit": "%"},
      {"measurement": "Visual % injury (Ave)", "setting": "[1]; T2, 1680 g ae/ha", "value": 88.8, "unit": "%"},
      {"measurement": "Visual % injury (Ave)", "setting": "[1]; T2, 3360 g ae/ha", "value": 94.5, "unit": "%"},
      {"measurement": "Visual % injury (Ave)", "setting": "[1]; T3, 420 g ae/ha", "value": 85.0, "unit": "%"},
      {"measurement": "Visual % injury (Ave)", "setting": "[1]; T3, 1680 g ae/ha", "value": 93.7, "unit": "%"},
      {"measurement": "Visual % injury (Ave)", "setting": "[1]; T3, 3360 g ae/ha", "value": 93.7, "unit": "%"},
      {"measurement": "Visual % injury (Ave)", "setting": "[2]; T1, 105 g ae/ha", "value": 34.5, "unit": "%"},
      {"measurement": "Visual % injury (Ave)", "setting": "[2]; T1, 420 g ae/ha", "value": 21.3, "unit": "%"},
      {"measurement": "Visual % injury (Ave)", "setting": "[2]; T1, 1680 g ae/ha", "value": 27.0, "unit": "%"},
      {"measurement": "Visual % injury (Ave)", "setting": "[2]; T1, 3360 g ae/ha", "value": 32.8, "unit": "%"},
      {"measurement": "Visual % injury (Ave)", "setting": "[2]; T2, 420 g ae/ha", "value": 0, "unit": "%"},
      {"measurement": "Visual % injury (Ave)", "setting": "[2]; T2, 1680 g ae/ha", "value": 1.8, "unit": "%"},
      {"measurement": "Visual % injury (Ave)", "setting": "[2]; T2, 3360 g ae/ha", "value": 3.8, "unit": "%"},
      {"measurement": "injury range", "setting": "[2]; T2, all concentrations of glyphosate tested", "value": "less than 20%"},
      {"measurement": "Visual % injury (Ave)", "setting": "[2]; T3, 420 g ae/ha", "value": 0.0, "unit": "%"},
      {"measurement": "Visual % injury (Ave)", "setting": "[2]; T3, 1680 g ae/ha", "value": 0.0, "unit": "%"},
      {"measurement": "Visual % injury (Ave)", "setting": "[2]; T3, 3360 g ae/ha", "value": 1.8, "unit": "%"},
      {"measurement": "injury range", "setting": "[2]; T3, all concentrations of glyphosate tested", "value": "less than 20%"},
      {"measurement": "IC50", "setting": "[3]", "value": 9.98, "unit": "mM"},
      {"measurement": "tolerance to glyphosate at concentrations up to", "setting": "dgt-14 rice plants", "value": "up to 3360 g ae/ha"}
    ]}
  ]
}
